# Where two headings read alike, the source gives them in different places.
# Legend:
# [1] = Body weight gain in C57BU6 mice shifted to a high fat diet, analogs and isomers, 3 days (Example 9); format: in vivo; details: C57BU6 mice on high fat diet, 100 mg/kg twice daily oral gavage
# Procedure: C57BU6 mice were received at 6-7 weeks of age and fed a standard commercial chow for 1 week (acclimation period). The animals were randomized based on their body weight values, into control and treatment groups (n=6). Then, animals were shifted to a high fat diet (60% of calories from fat) and treated twice daily by oral gavage with 4-hydroxyisoleucine (4-OH, compound 14a) or different analogs and isomers of 4-OH at the dose of 100 mg per kg of body weight for 3 days. The control group (Control HFD) received vehicle (water) alone and a group was kept under standard chow (Control Lean). Body weight of the mice was recorded daily. Two different experiments were run and the effect on body weight gain of selected analogs and isomers according to the invention is presented in FIG. 22A (Experiment 1) and FIG. 22B (Experiment 2).
# [2] = format: in vivo
# Description: The objective of this study was to evaluate the effect of chronic administration of 4-hydroxyisoleucine (4-OH, compound 14a) on food consumption and body weight gain of DIO-mice. Both parameters were monitored for 1 week prior to the commencement of treatment, then for the 77 days of treatment and for an additional 12 days post-treatment.
# C57BL/6 mice were received at 7-8 weeks of age and fed a high fat diet (60% of calories from fat) for several weeks. A total of 32 animals were used in the study. The animals were distributed into 4 groups (3 treated, 1 control group, all on high fat diet). Each group was composed of 8 animals. The mice were randomized according to body weight and basal glycemia values following a 5±0.5 hour fasting period.
# The test agent was dissolved in reverse osmosis water. 4-Hydroxyisoleucine was aliquoted and kept at 4° C. Control animals received reverse osmosis water twice daily (group 1). Mice from groups 2, 3 and 4 were treated twice daily with 4-hydroxyisoleucine (4-OH, compound 14a) at 100, 50, and 25 mg/kg, respectively. All groups were treated by oral gavage. Treatment commenced on Day 0 and ended on Day 77. Food consumption was measured daily and averaged on a weekly basis beginning one week before the start of treatment as shown in FIG. 15B. Similarly, food consumption was monitored during the treatment period and for 12 days after treatment was stopped as shown in FIGS. 15A and 15B.
# [3] = DIO mice
# Description: The objective of this study was to evaluate the effect of chronic administration of 4-hydroxyisoleucine (4-OH, compound 14a) and Rosiglitazone, administered alone or in combination, on food consumption and body weight gain of DIO-mice. Both parameters were monitored for 1 week prior to the commencement of treatment, then for the 28 days of treatment and for an additional 7 days post-treatment.
# A total of 72 animals were used in the study. The animals were distributed into 6 groups (5 treated, 1 control group, all on high fat diet). Each group was composed of 12 animals. The mice were randomized according to body weight and basal glycemia values following a 5±0.5 hour fasting period.
# For the four weeks of treatment, the test articles were dissolved in reverse osmosis water. 4-Hydroxyisoleucine was aliquoted and kept at 4° C. (administration to groups 2, 3, and 6), while Rosiglitazone was freshly prepared daily and kept at 4° C. between the AM and PM administration to groups 4, 5, and 6. Control animals received reverse osmosis water twice daily (group 1). Mice from groups 2 and 3 were treated twice daily with 4-OH at 50 and 100 mg/kg, respectively. Animals from groups 4 and 5 received 1.5 and 5 mg/kg of Rosiglitazone, respectively. […] All groups were treated by oral gavage. Treatment commenced on Day 0 and ended on Day 28 (FIGS. 17A and 17C).
# Food consumption was measured and averaged on a weekly basis beginning one week before the start of treatment as shown in FIGS. 17B and 17D as week −1. Similarly, food consumption was monitored for one week after treatment was stopped and is shown as week 5 in FIGS. 17B and 17D. In FIG. 17B, the food consumption over time for various treatment groups is illustrated by the bar graph.
# [4] = Weight gain and epididymal fat of DIO-C57Bl/6 mice, 4-hydroxyisoleucine and Exendin-4 alone or in combination (Example 5); format: in vivo, C57BI/6 mice; details: s.c., 21 days
# Procedure: Glycemic response was monitored by an Oral Glucose Tolerance Test (OGTT) performed on days 0, 7, 14, and 21 of treatment.
# A total of 56 animals were used in the study. The animals were distributed into 7 groups (5 treated, 1 normal diet control, and 1 high fat diet control group). Each group was composed of 8 animals. […] For the three weeks of treatment, the test agents were dissolved in sterile saline for injection (USP). 4-Hydroxyisoleucine was kept at 4° C. (administration to groups 3, 4, and 7) while a frozen aliquot of Exendin-4 was thawed each dosing day for administration to groups 5, 6, and 7. Control animals received sterile saline, twice daily (groups 1 and 2). […] Animals from groups 5 and 6 received sterile saline as the AM treatment, while the PM treatment consisted of 0.05 and 0.01 mg/kg of Exendin-4, respectively. For Group 7, the AM treatment consisted of 50 mg/kg 4-OH only, while the PM treatment consisted of 0.01 mg/kg of Exendin-4+50 mg/kg of 4-OH. All groups were treated by subcutaneous injection.
# [5] = Body weight of DIO mice, 4-hydroxyisoleucine and metformin alone and in combination (Example 6); format: in vivo, C57BU6 mice
# Procedure: C57BU6 mice were received at 7-8 weeks of age and fed a high fat diet (60% of calories from fat) for 8 weeks. Fasted glycemia was checked and animals with readings between 200 and 220 mg/dL were included in the study. The animals were randomized based on their body weights and glycemia values into control and treatment groups (n=8). […] The control group received vehicle (water) alone. The animals were treated for 21 days. Body weight of the mice was measured on the first day of treatment and on days 3, 7, 10, 14, 17, and 21. All data are expressed as mean±SEM.
# [6] = 4-OH 50 or 100 mg/kg twice daily
compound,measurement,setting,value
"C[C@@H]([C@H](C)O)[C@H](N)C(=O)O [compound 14a, (2S,3R,4S)-4-Hydroxyisoleucine]","body weight as compared to pre-treatment values (FIG. 22B, one experiment)",[1],reduced body weight of the mice as compared to pre-treatment values
same,body weight gain induced by the high fat diet,[1],reduced body weight gain induced by the high fat diet
same,effect on weight gain,"[2]; DIO mice, 100 mg/kg twice daily oral, Day 28 to Day 84",sustained and highly significant
same,tolerability of treatments,"[2]; DIO mice, 25, 50 and 100 mg/kg twice daily, oral gavage, 77 days",well-tolerated
same,weight gain,"[2]; DIO mice, 50 and 100 mg/kg twice daily oral, first three weeks of treatment",moderation of weight gain
same,food consumption,"[2]; DIO mice, during the first week of treatment, paralleling the reduction in body weight gain",slight decrease in food consumption
same,body weight gain and food consumption after cessation of treatment,"[2]; DIO mice, first week following cessation of treatment with 100 mg/kg",increase
same,weight gain induced by Rosiglitazone,[3]; 4-OH 50 mg/kg co-administered with Rosiglitazone 1.5 mg/kg,able to modulate the weight gain induced by Rosiglitazone
same,food consumption (FIG. 17D),"[3]; 4-OH 50 mg/kg, Rosiglitazone 1.5 mg/kg, or the two co-administered","reduction in food consumption during the first week, but not after"
same,weight gain,"[3]; 4-OH 100 mg/kg twice daily oral, 28 days",Moderation of weight gain
same,"food consumption, first week of treatment (FIG. 17B)",[3]; [6],decreased
same,"food consumption, remainder of the treatment phase (FIG. 17B)",[3]; [6],returned to pre-treatment levels
same,body weight gain,"[4]; 4-OH 50 mg/kg twice daily, Exendin-4 0.01 mg/kg (PM), alone or in combination",decrease in body weight gain
same,weight of epididymal fat,"[4]; 4-OH 100 mg/kg, Exendin-4 0.01 mg/kg, combination 4-OH 50 mg/kg + Exendin-4 0.01 mg/kg",reduction of the weight of epididymal fat
same,body weight as compared to vehicle-treated mice,"[5]; DIO mice, 100 mg/kg twice daily oral, 21 days, only 4-OH significant (p<0.01 4-OH, p=0.27 metformin)",reduction of their body weight
same,"body weight compared to control DIO mice, given alone","[5]; DIO mice, 4-OH 50 mg/kg or metformin 25 mg/kg twice daily oral, 21 days",no significant effect on body weight
same,efficacy in reducing body weight relative to metformin,"[5]; DIO mouse model, conclusion of the study",as effective as mefformin

# From US20060223884A1, “Compounds and compositions for use in the prevention and treatment of obesity and related syndromes” (priority 2005, published 2006)
